Test system: P388
Assay: In vivo antitumor activity against mouse P388 cells at 40 mg/kg
Format: functional

SMILES: COc1ccc2c(c1OC)[C@@H](c1ccc3c(c1)OCO3)C1=C(COC1=O)C2
- T/C: 144%

SMILES: COc1cc([C@@H]2c3cc4c(cc3[C@H](O)[C@H]3COC(=O)[C@H]23)OCO4)cc(OC)c1O
- T/C: 144%

SMILES: COc1cc([C@@H]2c3cc4c(cc3[C@H](O)[C@H]3COC(=O)[C@H]23)OCO4)cc(OC)c1OC [PODOFILOX]
- T/C: 144%

SMILES: COc1ccc2c(c1OC)[C@@H](c1ccc3c(c1)OCO3)[C@H]1C(=O)OC[C@@H]1C2 [POLYGAMATIN]
- T/C: 144%

SMILES: COc1cc([C@@H]2c3cc4c(cc3C[C@H]3COC(=O)[C@@H]32)OCO4)cc(OC)c1OC [DESOXYPODOPHYLLOTOXIN]
- T/C: 144%

SMILES: O=C1OC[C@@H]2Cc3cc4c(cc3[C@@H](c3ccc5c(c3)OCO5)[C@@H]12)OCO4 [POLYGAMAIN]
- T/C: 144%

— ChEMBL document CHEMBL1158648, “The Lignans of Polygala polygama (Polygalaceae): Deoxypodophyllotoxin and Three New Lignan Lactones” (1979)
